Assay results from paper PMC7466261, “In Silico and In Vitro Analysis of Multifunctionality of Animal Food-Derived Peptides” (Foods, 2020).
Read-outs that look alike come from different tables or passages of the source. Where a SMILES comes first, the peptide text is derived from it. Where no end group is shown, it is not given here.

Tests used:
[1] = biological target: T1, angiotensin-converting enzyme (ACE) (Oryctolagus cuniculus, UniProt P12822); assay: ACE-inhibitory activity, fluorescence assay with Abz-Gly-Phe(NO2)-Pro; format: biochemical
T1 sequence (P12822 34-1310): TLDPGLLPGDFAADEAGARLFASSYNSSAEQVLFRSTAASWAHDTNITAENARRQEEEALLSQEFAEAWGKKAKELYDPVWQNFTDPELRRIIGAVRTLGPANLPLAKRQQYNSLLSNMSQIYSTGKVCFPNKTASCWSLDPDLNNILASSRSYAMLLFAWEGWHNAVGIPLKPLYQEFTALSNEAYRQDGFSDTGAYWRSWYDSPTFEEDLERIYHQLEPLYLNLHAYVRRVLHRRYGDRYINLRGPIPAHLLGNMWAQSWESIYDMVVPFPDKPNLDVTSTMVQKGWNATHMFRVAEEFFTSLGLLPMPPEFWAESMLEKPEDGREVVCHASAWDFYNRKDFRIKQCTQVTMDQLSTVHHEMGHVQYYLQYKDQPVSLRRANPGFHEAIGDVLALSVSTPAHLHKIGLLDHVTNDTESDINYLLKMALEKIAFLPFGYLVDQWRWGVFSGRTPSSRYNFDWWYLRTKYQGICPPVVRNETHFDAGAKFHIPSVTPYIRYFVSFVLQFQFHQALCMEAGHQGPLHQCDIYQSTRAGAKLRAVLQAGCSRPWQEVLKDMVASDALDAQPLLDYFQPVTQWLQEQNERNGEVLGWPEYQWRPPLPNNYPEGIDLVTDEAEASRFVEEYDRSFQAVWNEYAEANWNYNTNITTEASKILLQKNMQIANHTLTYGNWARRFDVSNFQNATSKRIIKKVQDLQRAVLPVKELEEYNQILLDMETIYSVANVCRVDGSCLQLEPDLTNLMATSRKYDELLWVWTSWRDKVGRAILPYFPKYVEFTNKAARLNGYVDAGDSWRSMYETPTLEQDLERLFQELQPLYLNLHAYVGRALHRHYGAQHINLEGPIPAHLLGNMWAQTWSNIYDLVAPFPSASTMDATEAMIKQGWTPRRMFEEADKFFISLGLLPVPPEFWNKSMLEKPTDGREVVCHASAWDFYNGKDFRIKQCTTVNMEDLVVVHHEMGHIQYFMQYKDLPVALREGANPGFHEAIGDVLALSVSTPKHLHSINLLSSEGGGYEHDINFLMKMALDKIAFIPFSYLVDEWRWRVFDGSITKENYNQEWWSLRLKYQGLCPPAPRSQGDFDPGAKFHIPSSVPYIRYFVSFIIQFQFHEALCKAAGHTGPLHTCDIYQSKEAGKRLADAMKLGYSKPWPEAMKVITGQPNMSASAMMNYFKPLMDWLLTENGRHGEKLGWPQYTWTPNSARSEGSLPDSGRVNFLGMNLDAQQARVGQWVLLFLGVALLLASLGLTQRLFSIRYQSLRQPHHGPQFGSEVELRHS
Procedure: ACE (1 U/mL) was diluted (0.04 U/mL) in 150 mM Tris buffer containing 0.1 μM ZnCl2 (pH 8.3). Forty microliters of sample (or MilliQ water for blank and control) were added to a black multi-well plate (Porvair, Leatherhead, UK). Then, 40 μL of ACE were added, and the reaction started after the addition of 160 μL of the substrate. The plate was incubated at 37 °C for 30 min, and the fluorescence was measured in a FLUOstar OPTIMA plate reader (BMG Labtechnologies GmbH, Offenburg, Germany) with 320 nm excitation and 420 nm emission filters.

[2] = Oxygen radical absorbance capacity (ORAC)-FL assay; set-up: key to Antioxidant Activity ORAC, symbol: **: Antioxidant activity not detected at the highest peptide concentration analyzed (0.20 µmol); conditions: for Antioxidant Activity ORAC: mean ± SD
Procedure: An oxygen radical absorbance capacity (ORAC)-FL assay was used based on the protocol previously optimized. The reaction was performed at 37 °C in 75 mM phosphate buffer (pH 7.4). The final assay mixture volume was 200 µL, containing 70 nM FL, 12 mM AAPH, and antioxidant [(Trolox, 1–8 µM) or sample (at different concentrations)]. Fluorescence was measured during 137 min in a FLUOstar OPTIMA plate reader (BMG Labtech) with 485 nm excitation and 520 nm emission filters. The equipment was controlled by the FLUOstar Control ver. 1.32 R2 software for fluorescence measurement. Samples were analyzed in triplicate. The final ORAC-FL value was expressed as μmol Trolox equivalents (TE) per μmol peptide.

ABTS assay (TEAC) = conditions: mean ± SD
Procedure: Antioxidant activity was measured using a previously optimized method with some modifications. A mixture of 7 mM ABTS stock solution and 2.45 mM potassium persulfate was kept in the dark at room temperature for 12-16 h to form the ABTS radical cation (ABTS^•+). The ABTS^•+ solution was diluted in 5 mM of phosphate buffer solution (PBS) (pH 7.4) to an absorbance of 0.70 ± 0.02 at 734 nm at 30 °C. Two mL of diluted ABTS^•+ solution were mixed with 20 μL of sample or Trolox (0–0.015 μmol), and the absorbance was recorded at 734 nm after 10 min incubation at 30 °C. The Trolox equivalent antioxidant capacity (TEAC) value was expressed as μmol TE per μmol peptide. Each sample was analyzed in triplicate.

[3] = biological target: T1, angiotensin-converting enzyme (ACE); conditions: read-out: ACE inhibitory IC50, cited from earlier work
[4] = MBPDB; cited from earlier work
Caco-2 cells [5] = assay: Cell viability (MTT), direct effects, Caco-2; format: cell-based, human; conditions: Caco-2, 1–100 µM, 24 h
Procedure: (§1) Cell viability was determined using the MTT assay. […] Samples were analyzed in triplicate.

RAW264.7 cells = assay: Cell viability (MTT), direct effects, RAW264.7; format: cell-based, mouse; conditions: RAW264.7, 1–100 µM, 24 h
Procedure: as §1

Caco-2 cells [6] = assay: Intracellular ROS (DCFH), t-BOOH-stressed Caco-2; format: cell-based, human; conditions: stressed Caco-2 (1 mM t-BOOH)
Procedure: The intracellular ROS levels were detected using the ROS-sensitive fluorescent dye, DCFH, as previously described. Caco-2 cells were plated in 48-well plates (density of 4.75 × 10^4 cells/well) and RAW264.7 cells in 24-well plates (density of 2.0 × 10^5 cells/well) and incubated for 7 days and 14 h, respectively. After this time, cells were treated with peptides as previously described for 24 h. Then, DCFH was dissolved in HBSS and added to cells at a final concentration of 5 µM solution. Cells were incubated for 30 min at 37 °C. The probe was removed, and cells were incubated with PBS (direct effects) or t-BOOH (protective effects) for 60 min, measuring the fluorescence after 60 min in a FLUOstar OPTIMA plate reader (BMG Labtech) with 485 nm excitation and 520 nm emission filters. The results were expressed as percentage of the control, which was considered as 100%. The assay was run in triplicate.

[7] = mean ± SD, read-out: ACE Inhibitory Activity (IC50-µM)
[8] = highest peptide concentration analyzed 1000 µM, read-out: ACE Inhibitory Activity (IC50-µM), symbol

CC(C)C[C@H](N)C(=O)NCC(=O)N[C@@H](Cc1ccc(O)cc1)C(=O)O [LGY] (H-Leu-Gly-Tyr-OH; N-terminus and C-terminus assumed)
IC50 [1, 7]: 26.1 ± 0.83 µM | Antioxidant Activity ORAC [2]: 2.00 ± 0.09 µmol TE/µmol peptide | Antioxidant Activity TEAC (ABTS assay (TEAC)): 1.54 ± 0.01 µmol TE/µmol peptide | IC50 ([3]; database value): 21.5 µM | ORAC [4]: ORAC = 2.31 µmol TE/µmol peptide **

CC(C)C[C@H](NC(=O)[C@@H](N)CC(C)C)C(=O)N[C@@H](Cc1ccccc1)C(=O)O [LLF] (H-Leu-Leu-Phe-OH; N-terminus and C-terminus assumed)
IC50 [1, 7]: 94.8 ± 2.97 µM | Antioxidant Activity ORAC, symbol ([2]; highest peptide concentration analyzed 0.20 µmol): ** | IC50 ([3]; BIOPEP-UWM): 79.8 µM

CC(C)C[C@H](NC(=O)[C@H](Cc1ccc(O)cc1)NC(=O)[C@@H](N)CCCNC(=N)N)C(=O)NCC(=O)O [RYLG] (H-RYLG-OH; N-terminus and C-terminus assumed)
IC50 [1, 8]: > 1000 µM | Antioxidant Activity ORAC [2]: 1.70 ± 0.11 µmol TE/µmol peptide | Antioxidant Activity TEAC (ABTS assay (TEAC)): 2.91 ± 0.21 µmol TE/µmol peptide | IC50 ([3]; database value): 225 µM | ORAC [4]: ORAC = 1.67 µmol TE/µmol peptide **

CC(C)C[C@H](NC(=O)[C@H](Cc1ccc(O)cc1)NC(=O)[C@@H](N)CCCNC(=N)N)C(=O)O [RYL] (H-Arg-Tyr-Leu-OH; N-terminus and C-terminus assumed)
IC50 [1, 8]: > 1000 µM | Antioxidant Activity ORAC [2]: 1.72 ± 0.14 µmol TE/µmol peptide | Antioxidant Activity TEAC (ABTS assay (TEAC)): 1.90 ± 0.03 µmol TE/µmol peptide | IC50 ([3]; BIOPEP-UWM): 3.31 µM | IC50 ([3]; database value): 107 µM | ORAC [4]: ORAC = 1.75 µmol TE/µmol peptide **

CC(C)C[C@H](NC(=O)[C@H](Cc1ccccc1)NC(=O)CNC(=O)[C@@H](N)Cc1ccc(O)cc1)C(=O)O [YGFL]
IC50 [1, 7]: 292.5 ± 0.83 µM | Antioxidant Activity ORAC [2]: 1.42 ± 0.04 µmol TE/µmol peptide | Antioxidant Activity TEAC (ABTS assay (TEAC)): 2.12 ± 0.03 µmol TE/µmol peptide

CC(C)C[C@H](NC(=O)[C@@H](N)Cc1ccc(O)cc1)C(=O)NCC(=O)N[C@@H](Cc1ccc(O)cc1)C(=O)O [YLGY] (H-YLGY-OH; N-terminus and C-terminus assumed)
IC50 [1, 7]: 9.87 ± 0.31 µM | Antioxidant Activity ORAC [2]: 2.96 ± 0.20 µmol TE/µmol peptide | Antioxidant Activity TEAC (ABTS assay (TEAC)): 2.14 ± 0.11 µmol TE/µmol peptide | IC50 ([3]; database value): 41.9 µM | ORAC [4]: ORAC = 1.46 µmol TE/µmol peptide **

CC(C)C[C@H](NC(=O)[C@@H](N)Cc1ccc(O)cc1)C(=O)NCC(=O)O [YLG] (H-Tyr-Leu-Gly-OH; N-terminus and C-terminus assumed)
IC50 [1, 8]: > 1000 µM | Antioxidant Activity ORAC [2]: 0.93 ± 0.08 µmol TE/µmol peptide | Antioxidant Activity TEAC (ABTS assay (TEAC)): 1.40 ± 0.04 µmol TE/µmol peptide | ORAC [4]: ORAC = 1.38 µmol TE/µmol peptide **

N[C@@H](Cc1ccc(O)cc1)C(=O)N1CCC[C@H]1C(=O)N[C@@H](Cc1c[nH]c2ccccc12)C(=O)O [YPW] (H-Tyr-Pro-Trp-OH; N-terminus and C-terminus assumed)
IC50 [1, 8]: > 1000 µM

AYFYPE [AYFYPE]
IC50 [1, 7]: 774 ± 38.2 µM | IC50 ([3]; BIOPEP-UWM and MBPDB): 106 µM | IC50 ([3]; database value): 261 µM

FYPEL [FYPEL]
IC50 [1, 7]: 62 ± 6.27 µM | IC50 ([3]; database value): 80.6 µM

HLPLP [reference compound]
IC50 ([3]; literature value): 41 µM

IPP [reference compound]
IC50 ([3]; literature value): 5 µM

RYLGY [RYLGY]
IC50 [1, 7]: 3.08 ± 0.11 µM

RYLGYLE [RYLGYLE]
IC50 [1, 8]: > 1000 µM | Cell viability, direct effect (Caco-2 cells [5]): did not evoke changes in cell viability | Cell viability, direct effect (RAW264.7 cells): did not evoke changes in cell viability

VPP [reference compound]
IC50 ([3]; literature value): 9 µM

YFYPEL [YFYPEL]
IC50 [1, 7]: 8.82 ± 0.58 µM | Cell viability, direct effect (Caco-2 cells [5]): did not evoke changes in cell viability | Cell viability, direct effect (RAW264.7 cells): did not evoke changes in cell viability | ROS levels (% control) (Caco-2 cells [6]; 1 µM peptide): 168.88 ± 17.80%

YGFLP [YGFLP]
IC50 [1, 7]: 272.39 ± 0.25 µM | IC50 ([3]; literature value): 260 µM

YLGYLE [YLGYLE]
IC50 [1, 7]: 85.8 ± 4.66 µM | Cell viability, direct effect (Caco-2 cells [5]): did not evoke changes in cell viability | Cell viability, direct effect (RAW264.7 cells): did not evoke changes in cell viability | ROS levels (% control) (Caco-2 cells [6]; 1 µM peptide): 175.06 ± 11.13% | ROS levels (% control) (Caco-2 cells [6]; 10 µM peptide): 174.44 ± 11.60%

YPFPGPI [YPFPGPI]
IC50 [1, 7]: 686 ± 103 µM | IC50 ([3]; MBPDB): 500 µM

YPFPGPIP
IC50 [1, 7]: 224 ± 43.9 µM

YPFVE [YPFVE]
IC50 [1, 8]: > 1000 µM

YPFVEP [YPFVEP]
IC50 [1, 7]: 7.48 ± 0.03 µM

YPVEPF [YPVEPF]
IC50 [1, 8]: > 1000 µM
